Paper PMC5727059, “Antagonistic effect of dopamine structural analogues on human GABAρ1 receptor” (Scientific Reports, 2017)
Entries after “also recorded” stand apart in the source; their conditions may differ. Read-outs that look alike come from different tables or passages of the source.

Assays:
LGC-53 = LGC-53 (Caenorhabditis elegans, UniProt H2KYN9); experiment: cell-based; format: cell-based; settings: for gating or modulation of LGC-53: high concentrations (up to 1 mM); for Emax: read-out: Maximal effect versus maximal response to DA, % current;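 for all read-outs here: LGC-53 expressed in frog oocytes, two-electrode voltage clamp at −60 mV, analogues bath-applied, full or partial agonism judged by maximal effect against DA applied before and after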
Sequence of LGC-53 (H2KYN9 entry or part of it): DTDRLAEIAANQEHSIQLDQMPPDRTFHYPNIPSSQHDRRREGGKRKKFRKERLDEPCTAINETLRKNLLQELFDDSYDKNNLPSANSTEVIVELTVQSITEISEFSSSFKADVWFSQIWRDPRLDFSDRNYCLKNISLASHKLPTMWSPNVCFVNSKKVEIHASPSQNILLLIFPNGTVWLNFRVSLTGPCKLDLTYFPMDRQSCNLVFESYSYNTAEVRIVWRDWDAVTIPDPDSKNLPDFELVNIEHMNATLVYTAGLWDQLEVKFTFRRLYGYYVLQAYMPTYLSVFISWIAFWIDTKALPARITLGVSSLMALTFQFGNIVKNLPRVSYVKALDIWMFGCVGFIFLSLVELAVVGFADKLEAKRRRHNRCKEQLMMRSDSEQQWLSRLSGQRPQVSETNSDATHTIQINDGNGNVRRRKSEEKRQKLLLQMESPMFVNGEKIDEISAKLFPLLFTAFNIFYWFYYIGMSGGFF

human GABAρ1 [1] = target: T1, human GABAρ1 (Homo sapiens, UniProt P24046); experiment: Inhibition of GABA currents by co-application of 3 µM GABA and analogue, two-microelectrode voltage clamp in X. laevis oocytes; format: cell-based; settings: for extent of inhibition of GABA currents at high concentrations: maximum inhibition compared with full inhibition (100%); for Emax: read-out: Maximal effect on GABA currents, % Inh; for effect on the responses generated by 3 μM GABA: concentrations up to 20 mM, data not shown;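 for all read-outs here: oocytes expressing human GABAρ1 from injected mRNA, recorded 1–5 days later, clamped at −60 mV, room temperature, compounds bath-applied at pH 7.4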
T1 construct: expressed in transfected cells; host or cells: Xenopus laevis oocytes injected with in vitro transcribed mRNA
T1 sequence (P24046 22-479): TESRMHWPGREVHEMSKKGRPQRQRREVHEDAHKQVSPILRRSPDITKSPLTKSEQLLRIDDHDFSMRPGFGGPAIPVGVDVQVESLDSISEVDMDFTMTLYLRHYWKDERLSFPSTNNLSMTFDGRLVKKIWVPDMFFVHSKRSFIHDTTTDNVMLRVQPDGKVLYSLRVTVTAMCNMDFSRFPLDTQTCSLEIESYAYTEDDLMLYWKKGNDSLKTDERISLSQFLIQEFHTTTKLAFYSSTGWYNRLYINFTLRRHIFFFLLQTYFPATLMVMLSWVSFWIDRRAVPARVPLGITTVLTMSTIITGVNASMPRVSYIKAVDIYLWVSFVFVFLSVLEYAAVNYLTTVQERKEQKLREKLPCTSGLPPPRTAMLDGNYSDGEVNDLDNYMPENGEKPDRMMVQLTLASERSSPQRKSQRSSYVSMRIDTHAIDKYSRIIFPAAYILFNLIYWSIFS

human GABAρ1 [2] = target: T1, human GABAρ1; experiment: Current-voltage ramp (−120 to +70 mV) of GABA currents in presence of the IC50 of each compound, oocytes; format: cell-based; settings: 3 µM GABA, compound at its IC50; GABA alone as reference
Protocol: All these compounds are ionized at pH 7.4.
Supplementary Figure S2. I/V Curves A) Current−voltage relations for GABA currents modulated in presence of DA
analogues. B). Percentage of inhibition of DA analogues (for each compound the IC50s were tested) in the currents
Reverse potentials were: -35.25 ± 1.04 mV, -35.69 ±
reverse potential was -35.07 ± 0.90 mV.
(1 picture or pasted object on this page, not shown here)

human GABAρ1 [3] = target: T1, human GABAρ1; experiment: Modulation of activated GABAρ1: analogue applied during the current plateau upon activation with 3 µM GABA, oocytes; format: cell-based; settings: for Efficacy % to inhibit GABA responses: activated GABA channels (Fig. 5D empty bars), applied during 3 µM GABA perfusion
human GABAρ1 [4] = target: T1, human GABAρ1; design: method as in Ochoa de la Paz et al., 2012; settings: Table 1, ref Ochoa de la Paz et al., 2012, cited from earlier work; for IC50: read-out: GABA ρ1 (Human) IC50, oocytes
human GABAρ1 [5] = target: T1, human GABAρ1; experiment: Competition assays: GABA concentration-response curves in presence of 3-MT, oocytes; format: cell-based
[6] = receptor activated with GABA 3 µM
[7] = Fig. 7C, maximal concentration tested, DA 300 µM

COc1cc(CCN)ccc1O [3-MT, 3-Methoxytyramine]
activity on LGC-53 (LGC-53): inactive | LGC-53 EC50 (mM) (LGC-53; Table 1): N.E | gating or modulation of LGC-53 (LGC-53): Neither GABA nor 3-MT gated the channel or showed an evident modulatory effect | GABA ρ1 (Human) Antagonist: Full or partial (human GABAρ1 [1]; Table 1): full | extent of inhibition of GABA currents at high concentrations (human GABAρ1 [1]): Full inhibition | IC50 (human GABAρ1 [1]; read-out: GABA ρ1 (Human) IC50, Table 1, oocytes): 285 ± 3 µM | Emax (human GABAρ1 [1]): 100 ± 2.17% | reversal potential of GABA currents (human GABAρ1 [2]): -35.25 ± 1.04 mV | Efficacy % to inhibit GABA responses (human GABAρ1 [3]): 51.65 ± 6.93% | decrease of potency on activated receptor versus co-application (human GABAρ1 [3]; [6]): 2 fold

NCCCCO [4-AM-1-OH, 4-Amino-1-butanol]
LGC-53 EC50 (mM) (LGC-53; Table 1): N.E | GABA ρ1 (Human) Antagonist: Full or partial (human GABAρ1 [1]; Table 1): full | IC50 (human GABAρ1 [1]; Table 1, oocytes): 3910 ± 544 µM | Emax (human GABAρ1 [1]): 98.3 ± 7.3% | Efficacy % to inhibit GABA responses (human GABAρ1 [3]): 65.50 ± 4.77% | increase of potency on activated receptor versus co-application (human GABAρ1 [3]; receptor activated with GABA 3 µM, not statistically significant): about 25%

CNC[C@H](O)c1ccc(O)c(O)c1 [AD, Adrenaline]
LGC-53 Agonist: Full or partial (LGC-53): partial | agonist type on LGC-53 (LGC-53): partial agonists | EC50 (LGC-53; LGC-53 EC50 (mM)): 3.8 ± 0.803 mM | Emax (LGC-53): 59.2 ± 9.4% | GABA ρ1 (Human) IC50 (mM) (human GABAρ1 [1]; Table 1, oocytes): N.E | effect on the responses generated by 3 μM GABA (human GABAρ1 [1]): failed to elicit any effect

NCCc1ccc(O)c(O)c1 [DA, Dopamine]
LGC-53 Agonist: Full or partial (LGC-53): full | EC50 (LGC-53; EC50 on LGC-53): 0.00415 ± 0.0011 mM | EC50 (LGC-53; LGC-53 EC50 (mM)): 0.0042 ± 0.001 mM | currents generated by the compound alone in oocytes injected with human ρ1 (human GABAρ1 [1]; DA up to 1 mM, no GABA): did not generate evident currents | extent of inhibition of GABA currents at high concentrations (human GABAρ1 [1]): Full inhibition | Emax (human GABAρ1 [1]): 94.3 ± 5.84% | GABA ρ1 (Human) Antagonist: Full or partial (human GABAρ1 [4]): full | IC50 (human GABAρ1 [4]): 210 ± 1.12 µM | Efficacy % to inhibit GABA responses (human GABAρ1 [3]): 61.94 ± 6.66% | decrease of potency on activated receptor versus co-application (human GABAρ1 [3]; [6]): around 10 fold

O=C(O)Cc1ccc(O)c(O)c1 [DOPAC, 3,4-Dihydroxyphenylacetic acid]
LGC-53 EC50 (mM) (LGC-53; Table 1): N.E | GABA ρ1 (Human) Antagonist: Full or partial (human GABAρ1 [1]; Table 1): partial | IC50 (human GABAρ1 [1]; Table 1, oocytes): 2250 ± 258 µM | extent of inhibition of GABA currents at high concentrations (human GABAρ1 [1]): significantly different from the full inhibition | Emax (human GABAρ1 [1]): 93.6 ± 2.41% | change in potency/efficacy between activated receptor and co-application protocols (human GABAρ1 [3]; [6]): did not show differences in the efficacy or potency

NCCCC(=O)O [GABA, γ-Aminobutyric acid]
activity on LGC-53 (LGC-53): not modulated; also recorded: neither activated LGC-53 nor modulated the DA responses | gating or modulation of LGC-53 (LGC-53): Neither GABA nor 3-MT gated the channel or showed an evident modulatory effect | reversal potential of GABA currents (human GABAρ1 [2]): -35.07 ± 0.90 mV | Hill number of GABA concentration-response curve (human GABAρ1 [5]; 3-MT at its IC25): 1.38 ± 0.24 | Hill number of GABA concentration-response curve (human GABAρ1 [5]; 3-MT at its IC50): 1.40 ± 0.27 | Hill number of GABA concentration-response curve (human GABAρ1 [5]; 3-MT at its IC75): 1.90 ± 0.36 | Hill number of GABA concentration-response curve (human GABAρ1 [5]; GABA alone): 1.34 ± 0.37

COc1cc(CC(=O)O)ccc1O [HVA, Homovanillic acid]
LGC-53 EC50 (mM) (LGC-53; Table 1): N.E | GABA ρ1 (Human) Antagonist: Full or partial (human GABAρ1 [1]; Table 1): partial | IC50 (human GABAρ1 [1]; Table 1, oocytes): 1970 ± 211 µM | extent of inhibition of GABA currents at high concentrations (human GABAρ1 [1]): significantly different from the full inhibition | Emax (human GABAρ1 [1]): 86.5 ± 1.89% | change in potency/efficacy between activated receptor and co-application protocols (human GABAρ1 [3]; [6]): did not show differences in the efficacy or potency

N[C@@H](Cc1ccc(O)c(O)c1)C(=O)O [L-DOPA, L-3,4-dihydroxyphenylalanine]
LGC-53 EC50 (mM) (LGC-53; Table 1): N.E | GABA ρ1 (Human) IC50 (mM) (human GABAρ1 [1]; Table 1, oocytes): N.E

NC[C@H](O)c1ccc(O)c(O)c1 [NAD, Noradrenaline]
EC50 (LGC-53): 0.137 ± 0.072 mM | LGC-53 Agonist: Full or partial (LGC-53; Table 1): partial | Emax (LGC-53): 61 ± 13% | GABA ρ1 (Human) IC50 (mM) (human GABAρ1 [1]; Table 1, oocytes): N.E | effect on the responses generated by 3 μM GABA (human GABAρ1 [1]): failed to elicit any effect

NCCc1ccc(O)cc1 [Tyr, Tyramine]
agonist type on LGC-53 (LGC-53): partial agonists | Emax (LGC-53; [7]): 64.7 ± 9.6% | LGC-53 Agonist: Full or partial (LGC-53; Table 1): partial | EC50 (LGC-53; Table 1, read-out: LGC-53 EC50): 2.18 ± 0.482 mM | GABA ρ1 (Human) Antagonist: Full or partial (human GABAρ1 [4]): full | IC50 (human GABAρ1 [4]): 550 ± 12 µM

NCCc1ccccc1 [β-PEA, 2-Phenylethylamine]
EC50 (LGC-53): 1.33 ± 0.433 mM | agonist type on LGC-53 (LGC-53): partial agonists | Emax (LGC-53; [7]): 48.5 ± 10.4% | LGC-53 Agonist: Full or partial (LGC-53; Table 1): partial | IC50 (human GABAρ1 [1]): 1790 ± 104 µM | GABA ρ1 (Human) Antagonist: Full or partial (human GABAρ1 [1]; Table 1): full | Emax (human GABAρ1 [1]): 97.3 ± 2.73% | Efficacy % to inhibit GABA responses (human GABAρ1 [3]): 63.62 ± 11.44% | decrease of potency on activated receptor versus co-application (human GABAρ1 [3]; [6]): 2 fold
